Test results taken from patent US6573084B1, “Process for the deacylation of cyclic lipopeptides” (Fujisawa Pharmaceutical Co., Ltd., priority 1996, dated 2003).
Like-named read-outs stand apart in the source and are kept apart here. Starred links: 1 amine or outer side, 2 acyl side, 3 side chain; linkers in the order of their positions; H or OH if unused. Positions of bridges follow the written chain, without caps; N, C: chain ends. Non-standard residues stand in square brackets, D forms with d. Residues, ends and D or L forms follow the SMILES beside them. ξ: configuration not given here. *: point of attachment. X1 = O=C(C(N[*:1])C(O)C(O)c1ccc(O)c(OS(=O)(=O)O)c1)[*:2]; ξOrn(4,5-diOH) = O=C(C(CC(O)C(O)N[*:3])N[*:1])[*:2]; X4 = CCCCCCCCCCCCCC(CC(=O)[*:1])O[*:2]; ξPro(3ξ-OH,4ξ-Me) = CC1CNC(C(=O)O)C1O; X2 = NC(=O)CC(O)C(N[*:1])C(=O)[*:2]; Palmitoyl = CCCCCCCCCCCCCCCC(=O)*; X3 = O=C(C1C(O)CCN1[*:1])[*:2]; Hyp = O=C(O)[CH]1C[CH](O)CN1; Orn = NCCC[CH](N)C(=O)O

Tests used:
[1] = test system: acylase produced by Streptomyces sp. No. 6907; assay: Deacylation of cyclic lipopeptide substrates by the acylase of Streptomyces sp. No. 6907 (HPLC, Lineweaver-Burk, substrate specificity); format: biochemical; conditions: for Vmax / Km: substrate of the acylase, fermentation broth of Streptomyces sp. No. 6907; for Km: read-out: Km value determined by the Lineweaver-Burk method
Experimental: To 700 μl of the fermentation broth of Streptomyces sp. No. 6907 obtained in Example 1-3 was added 100 μl of an aqueous solution of Substance FR901379 (100 mg/ml) (10 mg as Substance FR901379; 8.35 μmol) together with 100 μl of methanol and 100 μl of buffer (0.5 M potassium dihydrogen phosphate-disodium hydrogen phosphate buffer; pH 6.0), and the reaction was carried out at 30° C. for 30 minutes. The reaction was then stopped with 4% acetic acid and following addition of 2 ml of methanol, the mixture was filtered through a membrane filter (0.45 μm) to remove the macromolecular protein and other fraction and subjected to HPLC and the acylase activity of the skeletal substance FR179642 produced was monitored and assayed at 210 nm.
Using a variable wavelength UV detector (Shimadzu SPD-10A), a pump (Shimadzu LC-10AD) and an integrator (Shimadzu C-R6A) as the instrumentation, LiChrospher 100RP-18(e) (250 mm×4 mm i.d., particle diameter 5 μm(E.Merck)) as the stationary phase, and 3% acetonitrile/0.5% ammonium dihydrogen phosphate as the mobile phase, Substance FR179642 was eluted at a flow rate of 1 ml/min. The retention time of Substance FR179642 was about 6.3 minutes. The yield of Substance FR179642 as calculated from HPLC data was 560 μg (0.60 μmol).
(§1) To 100 μl of the fermentation broth of Streptomyces sp. No. 6907 obtained in Example 1-3 was added 100 μl of a dimethyl sulfoxide solution of Aculeacin A (100 mg/ml) (10 mg as Aculeacin A; 9.65 μmol) together with 500 μl of 1.2 M KCl-containing 500 mM potassium dihydrogen phosphate-disodium hydrogen phosphate buffer (pH 7.0) and 300 μl of water, and the reaction was carried out at 40° C. for 15 minutes. The reaction was then stopped with 1 ml of 4% acetic acid and following addition of 2 ml of methanol, the mixture was filtered through a membrane filter (0.45 μm) to remove the macromolecular protein and other fraction and subjected to HPLC and the acylase activity of the nuclear substance Aculeacin A produced was monitored at 210 nm and determined. Using a variable wavelength UV detector (Shimadzu SPD-10A), a pump (Shimadzu LC-10AD) and an integrator (Shimadzu C-R6A) as the instrumentation, LiChrospher 100RP-18(e) (250 mm×4 mm i.d., particle diameter 5 μm (E.Merck)) as the stationary phase, and 4% acetonitrile/1% ammonium dihydrogen phosphate as the mobile phase, nuclear substance Aculeacin A was eluted at a flow rate of 1 ml/min. The retention time of nuclear substance Aculeacin A was about 8.7 minutes. The yield of nuclear substance Aculeacin A as calculated from HPLC data was 370 μg (0.47 μmol).
as §1, with “Echinocandin B” for “Aculeacin A”, “Echinocandin B; 9.43” for “Aculeacin A; 9.65”, “monitored and assayed” for “monitored”, “nm.” for “nm and determined.”, “90” for “370”, “(0.11” for “(0.47”
To 2.0 ml of the fermentation broth of Streptomyces sp. […]

[2] = target: T1, Actinoplanes utahensis-derived acylase (Actinoplanes utahensis, UniProt P29958); assay: Deacylation of Substance FR901469 by Actinoplanes utahensis acylase (HPLC of Substance FR181131); format: biochemical, Actinoplanes utahensis IF013244; conditions: produces Substance FR181131
T1 construct: To 20 ml of a fermentation broth of Actinoplanes utahensis IF013244; endogenous in cells; host or cells: Actinoplanes utahensis IF013244 (so in the source), whole fermentation broth
T1 sequence (P29958 230-786 limits assumed): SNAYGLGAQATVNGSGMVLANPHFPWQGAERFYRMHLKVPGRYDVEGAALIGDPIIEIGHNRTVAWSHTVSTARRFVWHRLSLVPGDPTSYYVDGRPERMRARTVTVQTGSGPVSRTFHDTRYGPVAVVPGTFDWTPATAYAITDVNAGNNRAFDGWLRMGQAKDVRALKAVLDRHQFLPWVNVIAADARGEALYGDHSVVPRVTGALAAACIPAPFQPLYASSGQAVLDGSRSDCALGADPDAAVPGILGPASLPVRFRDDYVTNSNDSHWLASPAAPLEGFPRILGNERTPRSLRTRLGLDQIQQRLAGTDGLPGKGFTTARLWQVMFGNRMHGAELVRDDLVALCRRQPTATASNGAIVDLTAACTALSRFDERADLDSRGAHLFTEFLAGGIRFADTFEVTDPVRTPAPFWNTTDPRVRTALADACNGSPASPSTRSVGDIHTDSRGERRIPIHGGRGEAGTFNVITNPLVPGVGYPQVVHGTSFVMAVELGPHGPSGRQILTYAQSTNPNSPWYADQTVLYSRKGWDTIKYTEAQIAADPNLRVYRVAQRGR
T1 sequence (P29958 35-214 limits assumed): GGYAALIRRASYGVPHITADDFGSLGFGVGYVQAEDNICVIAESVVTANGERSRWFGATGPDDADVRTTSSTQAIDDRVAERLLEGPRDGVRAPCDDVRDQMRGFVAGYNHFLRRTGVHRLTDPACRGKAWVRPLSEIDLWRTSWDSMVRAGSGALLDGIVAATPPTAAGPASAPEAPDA
Experimental: To 20 ml of a fermentation broth of Actinoplanes utahensis IF013244 as prepared by the procedure described in J. Antibiotics, Vol. 41, p. 1085-1092 ('88) was added 1 ml of an aqueous solution of Substance FR901469 (200 mg/ml) (0.2 g as Substance FR901469; 130 μmol) together with 2.9 g of disodium hydrogen phosphate and 60 ml of water, and the reaction was carried out at 60° C. for 24 hours. After completion of the reaction, the reaction mixture was filtered through a membrane filter (0.45 μm) to remove the high molecular protein and other fraction and purified by HPLC under monitoring for Substance FR181131 at 210 nm and the acylase activity was determined. Using a variable wavelength UV detector (Shimadzu SPD-10A), a pump (Shimadzu LC-10AD) and an integrator (Shimadzu C-R6A) as the instrumentation, YMC AM303 (250 mm×4 mm i.d., particle diameter 5 μm) as the stationary phase, and 12.5% acetonitrile/0.5% ammonium dihydrogen phosphate as the mobile phase, Substance FR181131 was eluted at a flow rate of 1 ml/min. The retention time of Substance FR181131 was about 7.3 minutes. The yield of Substance FR181131 as calculated from HPLC data was 80 mg (68 μmol).

Row | Compound | Substrate specificity (catalytic action of the acylase on the substrate) [1] | Vmax [1] [U/mg-protein] | Km [1] [µM] | Substrate specificity (catalytic action of the acylase on the substrate) ([1]; listed as FR901469) | Substrate specificity (catalytic action of the acylase on the substrate) [2]
1 | CCCCCCCCCCCCCCCC(=O)NC1CC(O)C(O)NC(=O)C2C(O)C(C)CN2C(=O)C(C(O)CC(N)=O)NC(=O)C(C(O)C(O)c2ccc(O)c(OS(=O)(=O)O)c2)NC(=O)C2CC(O)CN2C(=O)C(C(C)O)NC1=O (stereo not drawn) [Substance FR901379] (Palmitoyl-[ξOrn(4,5-diOH)]T[Hyp][X1][X2][ξPro(3ξ-OH,4ξ-Me)]; lactam 1-C; configuration not given here) | acts as a catalyst | 14.3 | 257 | – | –
2 | CCCCCCCCCCCCCC1CC(=O)NC(C(C)O)C(=O)NC(C)C(=O)NC(Cc2ccc(O)cc2)C(=O)NC(C(C)C)C(=O)N2CC(O)CC2C(=O)NC(C(C)O)C(=O)NC(C(C)O)C(=O)N2CCC(O)C2C(=O)NC(C(O)CC(N)=O)C(=O)NCC(=O)NC(C(C)O)C(=O)NC(CCCN)C(=O)O1 (stereo not drawn) [Substance FR901469] (TAYV[Hyp]TT[X3][X2]GT[Orn]; linker N-C via X4; configuration not given here) | exerts no catalytic action | – | – | does not act upon | exerts a catalytic action
3 | Aculeacin A | acts as a catalyst | 16.8 | 279 | – | –
4 | Echinocandin B | acts as a catalyst | 7.85 | 146 | – | –
